Results taken from PMC3791473 (Nature Communications, 2013).
Peptide text beside a SMILES is read from it.

What follows are compounds tested against T1, Ptr2p (Saccharomyces cerevisiae, UniProt P32901) (assay: Fluorescence-based competitive uptake). Conditions: not given.
T1 sequence (P32901 1-601): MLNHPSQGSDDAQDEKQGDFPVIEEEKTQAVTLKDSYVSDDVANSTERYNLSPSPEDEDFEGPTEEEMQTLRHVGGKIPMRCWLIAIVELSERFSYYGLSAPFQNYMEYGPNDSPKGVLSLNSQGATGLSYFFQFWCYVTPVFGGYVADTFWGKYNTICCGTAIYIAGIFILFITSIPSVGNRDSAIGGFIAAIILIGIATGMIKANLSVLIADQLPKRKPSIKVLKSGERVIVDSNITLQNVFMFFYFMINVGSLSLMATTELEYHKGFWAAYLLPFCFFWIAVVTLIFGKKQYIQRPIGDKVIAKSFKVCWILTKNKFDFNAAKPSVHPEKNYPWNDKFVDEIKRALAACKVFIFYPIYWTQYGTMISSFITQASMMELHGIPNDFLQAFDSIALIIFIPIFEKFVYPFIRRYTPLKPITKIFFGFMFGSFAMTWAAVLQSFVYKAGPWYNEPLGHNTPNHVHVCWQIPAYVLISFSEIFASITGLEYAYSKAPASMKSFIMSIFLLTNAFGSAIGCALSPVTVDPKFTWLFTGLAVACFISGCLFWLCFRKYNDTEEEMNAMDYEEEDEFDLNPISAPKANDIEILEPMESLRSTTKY
Assay type: cell-based

| Ki | Compound |
| --- | --- |
| 20 µM | N[C@@H](Cc1c[nH]c2ccccc12)C(=O)N[C@@H](Cc1ccccc1)C(=O)O [N-terminal W, C-terminal F, Trp-Phe] (H-Trp-Phe-OH) |
| 400 µM | C[C@H](N)C(=O)N[C@@H](C)C(=O)O [N-terminal A, C-terminal A, Ala–Ala] (H-Ala-Ala-OH; N-terminus and C-terminus assumed) |
| 130 µM | CC(C)C[C@H](N)C(=O)N[C@@H](Cc1c[nH]cn1)C(=O)O [N-terminal L, C-terminal H, Leu-His] (H-Leu-His-OH; N-terminus and C-terminus assumed) |
| 50 µM | CC(C)C[C@H](NC(=O)[C@@H](N)Cc1c[nH]cn1)C(=O)O [N-terminal H, C-terminal L, His–Leu] (H-His-Leu-OH; N-terminus and C-terminus assumed) |
| 310 µM | CC(C)C[C@H](NC(=O)[C@H](C)N)C(=O)O [N-terminal A, C-terminal L, Ala–Leu] (H-Ala-Leu-OH; N-terminus and C-terminus assumed) |
| 360 µM | CC(C)C[C@H](N)C(=O)NCC(=O)O [N-terminal L, C-terminal G, Leu-Gly] (H-Leu-Gly-OH; N-terminus and C-terminus assumed) |
| 600 µM | CC(C)C[C@H](NC(=O)CN)C(=O)O [N-terminal G, C-terminal L, Gly-Leu] |
| 48000 µM | NCC(=O)NCC(=O)NCC(=O)O [Gly–Gly–Gly] (H-Gly-Gly-Gly-OH; N-terminus and C-terminus assumed) |

Same assay, conditions: SC-Ptr2p cells

| competitive inhibition of β-Ala–Lys (AMCA) uptake | Compound |
| --- | --- |
| inhibited | carnosine [reference compound] |

Same assay, conditions: read-out: Km of β-Ala–Lys (AMCA) uptake; SC-Ptr2p cells; (±s.d.)

| Km | Compound |
| --- | --- |
| 160 µM | β-Ala–Lys (AMCA) [reference compound] |
